Read-outs that look alike come from different tables or passages of the source.

In assay [1] the test system is Leukemia Cell Line SR. The assay can be described thus: cells. Format: cell-based. Particulars: Homo sapiens, read-out: inhibition of proliferation.
Assay [2] has as its system Leukemia Cell Line K-562. The class given is cell-based. Particulars: Homo sapiens.
Assay [3] relates to Ovarian Cell Line NCI/ADR-RES. The assay can be described thus: cells. The class given is cell-based. The note with it: Homo sapiens, read-out: inhibition of proliferation.
Assay [4] relates to Melanoma Cell Line UACC-62. The assay can be described thus: cells. Format: cell-based. Particulars: Homo sapiens.
Assay [5] deals with Leukemia Cell Line CCRF-CEM. The assay can be described thus: cells. The note with it: Homo sapiens, read-out: inhibition of proliferation. Format: cell-based.
For assay [6], the system named is Ovarian Cell Line IGROV1. Format: cell-based. The note with it: Homo sapiens.
Assay [7] has as its system Breast Cancer Cell Line BT-549. The assay can be described thus: cells. The class given is cell-based. Particulars: Homo sapiens.
The test system of assay [8] is Breast Cancer Cell Line HS 578T. The class given is cell-based. The note with it: Homo sapiens, read-out: inhibition of proliferation.
The test system of assay [9] is Leukemia Cell Line MOLT-4. Format: cell-based. The note with it: Homo sapiens.
For assay [10], the system named is Leukemia Cell Line HL-60(TB). The class given is cell-based. The note with it: Homo sapiens.
The test system of assay [11] is Ovarian Cell Line OVCAR-3. The assay can be described thus: cells. The note with it: Homo sapiens, OVCAR-3, read-out: inhibition of proliferation.
In assay [12] the test system is Breast Cancer Cell Line MDA-MB-468. The assay can be described thus: cells. Particulars: Homo sapiens, MDA-MB-468, read-out: inhibition of proliferation.
Assay [13] concerns Leukemia Cell Line RPMI-8226. Format: cell-based. The note with it: Homo sapiens.
Assay [14] concerns the target T1, HDAC6 (Homo sapiens, UniProt Q9UBN7).
T1 sequence (Q9UBN7 1-1215): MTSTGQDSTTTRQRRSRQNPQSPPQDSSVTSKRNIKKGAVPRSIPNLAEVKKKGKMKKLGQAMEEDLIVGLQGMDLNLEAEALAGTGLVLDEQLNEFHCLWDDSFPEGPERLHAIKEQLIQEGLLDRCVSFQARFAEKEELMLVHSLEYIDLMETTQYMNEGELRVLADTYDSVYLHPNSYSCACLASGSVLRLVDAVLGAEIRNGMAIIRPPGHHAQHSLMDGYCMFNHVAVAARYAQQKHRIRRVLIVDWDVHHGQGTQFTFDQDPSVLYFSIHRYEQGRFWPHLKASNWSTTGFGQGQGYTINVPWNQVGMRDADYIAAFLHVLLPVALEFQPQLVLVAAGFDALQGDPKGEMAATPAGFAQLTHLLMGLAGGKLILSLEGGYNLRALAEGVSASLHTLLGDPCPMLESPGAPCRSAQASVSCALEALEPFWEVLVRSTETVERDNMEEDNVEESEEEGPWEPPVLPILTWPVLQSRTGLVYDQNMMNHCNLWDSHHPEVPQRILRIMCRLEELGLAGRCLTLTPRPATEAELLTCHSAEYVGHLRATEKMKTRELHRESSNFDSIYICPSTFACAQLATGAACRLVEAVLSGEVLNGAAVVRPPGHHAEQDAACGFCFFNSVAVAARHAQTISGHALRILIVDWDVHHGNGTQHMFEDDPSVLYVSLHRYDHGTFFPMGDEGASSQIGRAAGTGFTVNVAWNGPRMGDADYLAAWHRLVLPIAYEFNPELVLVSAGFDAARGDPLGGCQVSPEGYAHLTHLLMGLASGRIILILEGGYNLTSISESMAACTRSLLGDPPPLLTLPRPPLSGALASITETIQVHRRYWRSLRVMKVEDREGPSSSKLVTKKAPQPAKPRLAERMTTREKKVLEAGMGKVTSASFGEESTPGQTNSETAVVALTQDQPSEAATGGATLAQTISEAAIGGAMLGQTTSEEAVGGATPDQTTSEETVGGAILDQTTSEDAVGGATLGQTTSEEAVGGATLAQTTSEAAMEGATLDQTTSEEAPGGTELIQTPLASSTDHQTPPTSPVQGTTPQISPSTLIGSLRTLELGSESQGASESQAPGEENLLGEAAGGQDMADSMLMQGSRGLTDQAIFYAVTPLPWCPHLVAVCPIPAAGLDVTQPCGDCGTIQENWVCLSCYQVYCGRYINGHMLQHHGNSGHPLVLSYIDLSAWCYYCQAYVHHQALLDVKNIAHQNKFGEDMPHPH
The assay can be described thus: HDAC Fluorescent Activity Assay. Particulars: symbols ++ / +; read-out: HDAC6 Inhibition Activity (IC50 class). The class given is biochemical. As to the method:
This protocol is to determine the IC50s or percentage of inhibition values of the test compound against HDACs.
The HDAC Fluorescent Activity Assay is based on the unique Fluorogenic Substrate and Developer combination. […] First, the Fluorogenic Substrate, which comprises an acetylated lysine side chain, is incubated with a purified HDAC enzyme. Deacetylation of the substrate sensitizes the substrate so that, in the second step, treatment with the Developer produces a fluorophore.
Testing compounds were dissolved in 100% DMSO to specific concentration. […]
1. Deliver 2× enzyme in wells of reaction plate except No Enzyme control wells. Add buffer in No En wells.
2. Deliver compounds in 100% DMSO into the enzyme mixture by Acoustic technology (Echo550; nanoliter range). Spin down and pre-incubation.
3. Deliver 2× Substrate Mixture (Fluorogenic HDAC Substrate and co-factor if applicable) in all reaction wells to initiate the reaction. Spin and shake.
4. Incubate for 1-2 hr at 30° C. with seal.
5. Add Developer with Trichostatin A (or TMP269) to stop the reaction and to generate fluorescent color.
6. Fluorescence was read (excitatory, 360; emission, 460) using the EnVision Multilabel
7. Take endpoint reading for analysis after the development reaches plateau.
The percentages of enzyme activity (relative to DMSO controls) and IC50 values were calculated using the GraphPad Prism 4 program based on a sigmoidal dose-response equation.

Assay [15] concerns Ovarian Cell Line OVCAR-8. The assay can be described thus: cells. Format: cell-based. The note with it: Homo sapiens.
[16] abbreviates: single dose, 10 uM compound concentration.
Setting [17] is: UACC-62, read-out: inhibition of proliferation.
The mark [18] stands for this setting: IGROV-1, read-out: inhibition of proliferation.
Setting [19] is: BT-549, read-out: inhibition of proliferation.
Where [20] appears, read: MOLT-4, read-out: inhibition of proliferation.
Where [21] appears, read: HL-60, read-out: inhibition of proliferation.
[22] abbreviates: RPMI-8226, read-out: inhibition of proliferation.

For orientation: IC50 means the concentration that inhibits the measured activity by half. Turning to `Cc1nc2cccc(NCc3ccc(C(=O)NO)cc3)c2c(=O)n1-c1ccccc1` [Compound LX, N-hydroxy-4-(((2-methyl-4-oxo-3-phenyl-3,4-dihydroquinazolin-5-yl)amino)methyl)benzamide], the inhibition at 10 µM is over 50% in [1] (SR, single dose, 10 uM compound concentration); over 50% in assay [2] (K562, K-562, single dose, 10 uM compound concentration, read-out: inhibition of proliferation); over 50% in [3] (setting [16]); over 50% in [4] (UACC-62, single dose, 10 uM compound concentration, read-out: inhibition of proliferation); over 50% in assay [5] (setting [16]); over 50% in [6] (IGROV-1, IGROV1, single dose, 10 uM compound concentration, read-out: inhibition of proliferation). Also, the inhibition at 10 µM in [7] (BT-549, single dose, 10 uM compound concentration, read-out: inhibition of proliferation) was 25 to 50%; in assay [8] (HS 578T, single dose, 10 uM compound concentration), 25 to 50%; in assay [9] (MOLT-4, single dose, 10 uM compound concentration, read-out: inhibition of proliferation), over 50%; in assay [10] (HL-60(TB), single dose, 10 uM compound concentration, read-out: inhibition of proliferation) it was over 50%; in [11] it was over 50%; in assay [12], over 50%. Moreover, the inhibition at 10 µM in assay [13] (RPMI-8226, single dose, 10 uM compound concentration, read-out: inhibition of proliferation) is over 50%; in assay [15] (OVCAR-8, single dose, 10 uM compound concentration, read-out: inhibition of proliferation), over 50%. Moreover, the IC50 in assay [14] was under 100 nM.
Consider `CC[C@H](Nc1ncnc2[nH]cnc12)c1nc2cccc(NCc3ccc(C(=O)NO)nc3)c2c(=O)n1-c1ccccc1` [V, (S)-5-(((2-(1-((9H-purin-6-yl)amino)propyl)-4-oxo-3-phenyl-3,4-dihydroquinazolin-5-yl)amino)methyl)-N-hydroxypicolinamide], for which the inhibition at 10 µM was over 50% in assay [1]; over 50% in assay [2] (K562, read-out: inhibition of proliferation); 25 to 50% in [3]; over 50% in assay [4] (setting [17]); over 50% in assay [5]; 25 to 50% in [6] (setting [18]). Further, the inhibition at 10 µM in assay [7] (setting [19]), in assay [8] (Hs-578T), in [9] (setting [20]), in [10] (setting [21]) and in [13] (setting [22]) was over 50% in each case.
Take `CC[C@H](Nc1nc(N)nc(C)c1C#N)c1nc2cccc(NCc3ccc(C(=O)NO)cc3)c2c(=O)n1-c1ccccc1` [Compound XL, (S)-4-(((2-(1-((2-amino-5-cyano-6-methylpyrimidin-4-yl)amino)propyl)-4-oxo-3-phenyl-3,4-dihydroquinazolin-5-yl)amino)methyl)-N-hydroxybenzamide]: the inhibition at 10 µM is 25 to 50% in assay [3]; over 50% in assay [4] (setting [17]); over 50% in assay [5]; over 50% in assay [6] (setting [18]); over 50% in [7] (setting [19]); over 50% in assay [8] (Hs-578T). In addition, the inhibition at 10 µM in [9] (setting [20]) was over 50%; in assay [10] (setting [21]), over 50%; in [11], over 50%; in [12], over 50%; in [13] (setting [22]), over 50%; in [15] (OVCAR-8, read-out: inhibition of proliferation), over 50%.

These data come from US20200165257A1, “INHIBITORS OF PHOSPHOINOSITIDE 3-KINASE AND HISTONE DEACETYLASE FOR TREATMENT OF CANCER” (THE UNITED STATES OF AMERICA, AS REPRESENTED BY THE …, priority 2017, published 2020).
